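Cultured in 96-well plates, cells were exposed to test compound for 48 hours across five concentrations. GI50 is the concentration that inhibits growth by half.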 Activity calls are given as the source filed them. Rule as the data show it: active = GI50 up to about 1.1 µM and inactive = higher.
Tests used:
Assay in all cases: NCI tumour cell line growth inhibition, 48 h
SW-620 = system: SW-620
CAKI-1 = system: CAKI-1
ACHN = system: ACHN
NCI/ADR-RES = system: NCI/ADR-RES
DU-145 = system: DU-145
A498 = system: A498
M14 = system: M14
NCI-H23 = system: NCI-H23
SNB-19 = system: SNB-19
CCRF-CEM = system: CCRF-CEM
SNB-75 = system: SNB-75
UACC-257 = system: UACC-257
T47D = system: T47D
SN12C = system: SN12C
MOLT-4 = system: MOLT-4
UACC-62 = system: UACC-62
BT-549 = system: BT-549
OVCAR-3 = system: OVCAR-3
HCC 2998 = system: HCC 2998

Row | SMILES | GI50 (SW-620) | GI50 (CAKI-1) | GI50 (ACHN) | GI50 (NCI/ADR-RES) | GI50 (DU-145) | GI50 (A498) | GI50 (M14) | GI50 (NCI-H23) | GI50 (SNB-19) | GI50 (CCRF-CEM) | GI50 (SNB-75) | GI50 (UACC-257) | GI50 (T47D) | GI50 (SN12C) | GI50 (MOLT-4) | GI50 (UACC-62) | GI50 (BT-549) | GI50 (OVCAR-3) | GI50 (HCC 2998)
1 | Cn1c(=O)c2nc(CCS)[nH]c2n(C)c1=O | > 100 µM (inactive) | > 100 µM (inactive) | > 100 µM (inactive) | > 100 µM (inactive) | > 100 µM (inactive) | > 100 µM (inactive) | > 100 µM (inactive) | > 100 µM (inactive) | > 100 µM (inactive) | 55 µM (inactive) | 18.3 µM (inactive) | > 100 µM (inactive) | > 100 µM (inactive) | > 100 µM (inactive) | > 100 µM (inactive) | > 100 µM (inactive) | > 100 µM (inactive) | > 100 µM (inactive) | –
2 | CC(C)NC1(C(N)=O)CCN(Cc2ccccc2)CC1 | > 100 µM (inactive) | > 100 µM (inactive) | > 100 µM (inactive) | > 100 µM (inactive) | > 100 µM (inactive) | > 100 µM (inactive) | > 100 µM (inactive) | > 100 µM (inactive) | > 100 µM (inactive) | – | > 100 µM (inactive) | > 100 µM (inactive) | > 100 µM (inactive) | > 100 µM (inactive) | > 100 µM (inactive) | > 100 µM (inactive) | > 100 µM (inactive) | > 100 µM (inactive) | –
3 | CCCC(=O)OCC1(CO)C/C(=C/CC(C(C)C)C(C)C)C(=O)O1 (stereo not given) | > 100 µM (inactive) | > 100 µM (inactive) | > 100 µM (inactive) | > 100 µM (inactive) | > 100 µM (inactive) | > 100 µM (inactive) | – | > 100 µM (inactive) | > 100 µM (inactive) | > 100 µM (inactive) | > 100 µM (inactive) | > 100 µM (inactive) | > 100 µM (inactive) | > 100 µM (inactive) | – | > 100 µM (inactive) | > 100 µM (inactive) | > 100 µM (inactive) | > 100 µM (inactive)
4 | CCOC(=O)c1c2c(n(Cc3ccccc3)c1C)C(=O)C(=O)c1ccccc1-2 | 0.18 µM (active) | 0.5 µM (active) | 0.275 µM (active) | 0.466 µM (active) | 0.465 µM (active) | – | 0.452 µM (active) | 0.231 µM (active) | 0.315 µM (active) | 0.134 µM (active) | 0.309 µM (active) | 0.0989 µM (active) | 0.579 µM (active) | 0.171 µM (active) | 0.17 µM (active) | 0.284 µM (active) | 0.337 µM (active) | 0.0615 µM (active) | 0.56 µM (active)
